Source: patent US20260226493A1, “HERBICIDE RESISTANT PLANTS” (SYNGENTA CROP PROTECTION AG, priority 2023, published 2026)

Assays:
Test in all cases: BIO3-BIO1 mutant enzyme activity in the presence of herbicide, percentage inhibition (fluorometric DAPA assay)
Assay type in all cases: biochemical
Conditions in all cases: read-out: percentage inhibition
[1] = molecular target: T1, Arabidopsis thaliana BIO3-BIO1 (BioDA) mutants (Arabidopsis thaliana, UniProt B0F481, A609R)
T1 construct: with the predicted N-terminal mitochondrial transit peptide removed; 6xHis-tag (N); thrombin cleavage site (N); made in house; host or cells: E. coli BL21 (DE3) bioA
T1 sequence (B0F481 23-833 A609R): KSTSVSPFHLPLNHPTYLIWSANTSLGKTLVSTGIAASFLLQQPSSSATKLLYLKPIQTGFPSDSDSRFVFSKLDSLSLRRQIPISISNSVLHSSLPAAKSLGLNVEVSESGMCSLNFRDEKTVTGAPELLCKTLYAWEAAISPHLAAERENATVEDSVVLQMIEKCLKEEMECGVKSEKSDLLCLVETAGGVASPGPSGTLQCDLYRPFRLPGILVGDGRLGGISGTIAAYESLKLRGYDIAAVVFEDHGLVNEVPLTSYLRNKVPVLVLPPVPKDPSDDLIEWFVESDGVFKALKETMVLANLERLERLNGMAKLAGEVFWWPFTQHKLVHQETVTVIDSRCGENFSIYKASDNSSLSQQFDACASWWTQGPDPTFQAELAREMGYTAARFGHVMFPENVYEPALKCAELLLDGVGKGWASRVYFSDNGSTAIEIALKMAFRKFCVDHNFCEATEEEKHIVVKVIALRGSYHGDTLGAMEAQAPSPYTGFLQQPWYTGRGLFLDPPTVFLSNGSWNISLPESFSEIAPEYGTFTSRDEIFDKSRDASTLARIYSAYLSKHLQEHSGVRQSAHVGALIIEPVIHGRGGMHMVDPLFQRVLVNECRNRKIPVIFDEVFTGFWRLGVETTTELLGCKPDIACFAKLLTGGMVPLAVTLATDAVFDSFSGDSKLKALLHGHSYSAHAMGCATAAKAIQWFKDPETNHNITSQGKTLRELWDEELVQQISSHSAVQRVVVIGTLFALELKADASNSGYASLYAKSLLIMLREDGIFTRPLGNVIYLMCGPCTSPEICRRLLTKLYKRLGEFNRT
How it was run: (§1)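 His-tagged Arabidopsis BIO3-BIO1 mutants, expressed in E. coli and purified by IMAC and SEC, were preincubated at 50 nM with herbicide for 10 min at 20 °C in EPPS pH 8.6 with pyridoxal phosphate. Reaction with 100 μM spermidine and 20 μM KAPA ran 75 min at 20 °C; DAPA was derivatised with o-phthalaldehyde and read at ex 410/em 470 nm. […].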

[2] = molecular target: T2, Arabidopsis thaliana BIO3-BIO1 (BioDA) mutants (Arabidopsis thaliana, UniProt B0F481, P510L)
T2 construct: with the predicted N-terminal mitochondrial transit peptide removed; 6xHis-tag (N); thrombin cleavage site (N); made in house; host or cells: E. coli BL21 (DE3) bioA
T2 sequence (B0F481 23-833 P510L): as the sequence (B0F481 23-833 A609R) above, with P488L, R587A counted along it
How it was run: as §1

[3] = molecular target: T3, Arabidopsis thaliana BIO3-BIO1 (BioDA) mutants (Arabidopsis thaliana, UniProt B0F481, G700S)
T3 construct: with the predicted N-terminal mitochondrial transit peptide removed; 6xHis-tag (N); thrombin cleavage site (N); made in house; host or cells: E. coli BL21 (DE3) bioA
T3 sequence (B0F481 23-833 G700S): as the sequence (B0F481 23-833 A609R) above, with R587A, G678S counted along it
How it was run: as §1

[4] = molecular target: T4, Arabidopsis thaliana BIO3-BIO1 (BioDA) mutants (Arabidopsis thaliana, UniProt B0F481, A609F)
T4 construct: with the predicted N-terminal mitochondrial transit peptide removed; 6xHis-tag (N); thrombin cleavage site (N); made in house; host or cells: E. coli BL21 (DE3) bioA
T4 sequence (B0F481 23-833 A609F): as the sequence (B0F481 23-833 A609R) above, with R587F counted along it
How it was run: as §1

[5] = molecular target: T5, Arabidopsis thaliana BIO3-BIO1 (BioDA) mutants (Arabidopsis thaliana, UniProt B0F481, F348I)
T5 construct: with the predicted N-terminal mitochondrial transit peptide removed; 6xHis-tag (N); thrombin cleavage site (N); made in house; host or cells: E. coli BL21 (DE3) bioA
T5 sequence (B0F481 23-833 F348I): as the sequence (B0F481 23-833 A609R) above, with F326I, R587A counted along it
How it was run: as §1

[6] = molecular target: T6, Arabidopsis thaliana BIO3-BIO1 (BioDA) mutants (Arabidopsis thaliana, UniProt B0F481, A609K)
T6 construct: with the predicted N-terminal mitochondrial transit peptide removed; 6xHis-tag (N); thrombin cleavage site (N); made in house; host or cells: E. coli BL21 (DE3) bioA
T6 sequence (B0F481 23-833 A609K): as the sequence (B0F481 23-833 A609R) above, with R587K counted along it
How it was run: as §1

[7] = molecular target: T7, Arabidopsis thaliana BIO3-BIO1 (BioDA) mutants (Arabidopsis thaliana, UniProt B0F481, Q517I)
T7 construct: with the predicted N-terminal mitochondrial transit peptide removed; 6xHis-tag (N); thrombin cleavage site (N); made in house; host or cells: E. coli BL21 (DE3) bioA
T7 sequence (B0F481 23-833 Q517I): as the sequence (B0F481 23-833 A609R) above, with Q495I, R587A counted along it
How it was run: as §1

[8] = molecular target: T8, Arabidopsis thaliana BIO3-BIO1 (BioDA) mutants (Arabidopsis thaliana, UniProt B0F481, T512V)
T8 construct: with the predicted N-terminal mitochondrial transit peptide removed; 6xHis-tag (N); thrombin cleavage site (N); made in house; host or cells: E. coli BL21 (DE3) bioA
T8 sequence (B0F481 23-833 T512V): as the sequence (B0F481 23-833 A609R) above, with T490V, R587A counted along it
How it was run: as §1

[9] = molecular target: T9, Arabidopsis thaliana BIO3-BIO1 (BioDA) mutants (Arabidopsis thaliana, UniProt B0F481, V354E)
T9 construct: with the predicted N-terminal mitochondrial transit peptide removed; 6xHis-tag (N); thrombin cleavage site (N); made in house; host or cells: E. coli BL21 (DE3) bioA
T9 sequence (B0F481 23-833 V354E): as the sequence (B0F481 23-833 A609R) above, with V332E, R587A counted along it
How it was run: as §1

[10] = molecular target: T10, Arabidopsis thaliana BIO3-BIO1 (BioDA) mutants (Arabidopsis thaliana, UniProt B0F481, S509D)
T10 construct: with the predicted N-terminal mitochondrial transit peptide removed; 6xHis-tag (N); thrombin cleavage site (N); made in house; host or cells: E. coli BL21 (DE3) bioA
T10 sequence (B0F481 23-833 S509D): as the sequence (B0F481 23-833 A609R) above, with S487D, R587A counted along it
How it was run: as §1

[11] = molecular target: T11, Arabidopsis thaliana BIO3-BIO1 (BioDA) mutants (Arabidopsis thaliana, UniProt B0F481, R756K)
T11 construct: with the predicted N-terminal mitochondrial transit peptide removed; 6xHis-tag (N); thrombin cleavage site (N); made in house; host or cells: E. coli BL21 (DE3) bioA
T11 sequence (B0F481 23-833 R756K): as the sequence (B0F481 23-833 A609R) above, with R587A, R734K counted along it
How it was run: as §1

[12] = molecular target: T12, Arabidopsis thaliana BIO3-BIO1 (BioDA) mutants (Arabidopsis thaliana, UniProt B0F481, Q517F)
T12 construct: with the predicted N-terminal mitochondrial transit peptide removed; 6xHis-tag (N); thrombin cleavage site (N); made in house; host or cells: E. coli BL21 (DE3) bioA
T12 sequence (B0F481 23-833 Q517F): as the sequence (B0F481 23-833 A609R) above, with Q495F, R587A counted along it
How it was run: as §1

SMILES	inhibition at 0.2 µM [1] [%]	inhibition at 1 µM [1] [%]	inhibition at 5 µM [1] [%]	inhibition at 0.2 µM [7] [%]	inhibition at 1 µM [7] [%]	inhibition at 5 µM [7] [%]	inhibition at 0.2 µM [8] [%]	inhibition at 1 µM [8] [%]	inhibition at 5 µM [8] [%]	inhibition at 0.2 µM [2] [%]	inhibition at 1 µM [2] [%]	inhibition at 5 µM [2] [%]	inhibition at 1 µM [9] [%]	inhibition at 1 µM [3] [%]	inhibition at 1 µM [4] [%]	inhibition at 1 µM [5] [%]	inhibition at 1 µM [6] [%]	inhibition at 1 µM [10] [%]	inhibition at 1 µM [11] [%]	inhibition at 1 µM [12] [%]	other results
CCn1c(Cn2ccc(C(F)(F)F)n2)cc(=O)c(C(=O)O)c1-c1ccc(Cl)c(Cl)c1 [Compound L, 2-(3,4-dichlorophenyl)-1-ethyl-4-oxo-6-[[3-(trifluoromethyl)pyrazol-1-yl]methyl]pyridine-3-carboxylic acid]																					inhibition at 0.01 µM [1]: 0%; inhibition at 0.075 µM [1]: 51%; inhibition at 0.5 µM [1]: 65%; inhibition at 0.01 µM [2]: 35%; inhibition at 0.075 µM [2]: 88%; inhibition at 0.5 µM [2]: 97%; inhibition at 0.01 µM [3]: 9%; inhibition at 0.075 µM [3]: 3%; inhibition at 0.5 µM [3]: 3%; inhibition at 0.01 µM [4]: 10%; inhibition at 0.075 µM [4]: 0%; inhibition at 0.5 µM [4]: 16%; inhibition at 0.01 µM [5]: 1%; inhibition at 0.075 µM [5]: 3%; inhibition at 0.5 µM [5]: 14%; inhibition at 0.01 µM [6]: 36%; inhibition at 0.075 µM [6]: 52%; inhibition at 0.5 µM [6]: 64%
CCn1c(C)c(-c2ccc(F)cc2F)c(=O)c(C(=O)O)c1-c1ccc(Cl)c(Cl)c1 [Compound C, 2-(3,4-dichlorophenyl)-5-(2,4-difluorophenyl)-1-ethyl-6-methyl-4-oxo-pyridine-3-carboxylic acid]	63	68	71	25	58	82	51	81	96	67	84	96	0	0	5	11	80	91	42	55	inhibition at 0.2 µM [9]: 0%; inhibition at 5 µM [9]: 39%; inhibition at 0.2 µM [3]: 9%; inhibition at 5 µM [3]: 9%; inhibition at 0.2 µM [4]: 5%; inhibition at 5 µM [4]: 20%; inhibition at 0.2 µM [5]: 6%; inhibition at 5 µM [5]: 49%; inhibition at 0.2 µM [6]: 65%; inhibition at 5 µM [6]: 87%; inhibition at 0.2 µM [10]: 59%; inhibition at 5 µM [10]: 103%; inhibition at 0.2 µM [11]: 6%; inhibition at 5 µM [11]: 80%; inhibition at 0.2 µM [12]: 29%; inhibition at 5 µM [12]: 85%
CCOC(=O)c1nn(-c2ccc3c(c2)OC(F)(F)C(F)(F)O3)c2cccc(C(C)=O)c2c1=O [Compound A, ethyl 5-acetyl-4-oxo-1-(2,2,3,3-tetrafluoro-1,4-benzodioxin-6-yl)cinnoline-3-carboxylate]		54			28			58			82		25	0	6	7	18	9	33	20	
CCn1c(-c2ccc(Cl)c(Cl)c2)c(C(=O)O)c(=O)c2cc(F)ccc21 [Compound M, 2-(3,4-dichlorophenyl)-1-ethyl-6-fluoro-4-oxo-quinoline-3-carboxylic acid]	52	53	88	19	44	72	57	77	94	54	77	94	0	0	26	6	78	80	36	29	inhibition at 0.2 µM [9]: 0%; inhibition at 5 µM [9]: 23%; inhibition at 0.2 µM [3]: 8%; inhibition at 5 µM [3]: 9%; inhibition at 0.2 µM [4]: 19%; inhibition at 5 µM [4]: 66%; inhibition at 0.2 µM [5]: 0%; inhibition at 5 µM [5]: 25%; inhibition at 0.2 µM [6]: 0%; inhibition at 5 µM [6]: 92%; inhibition at 0.2 µM [10]: 48%; inhibition at 5 µM [10]: 98%; inhibition at 0.2 µM [11]: 10%; inhibition at 5 µM [11]: 71%; inhibition at 0.2 µM [12]: 0%; inhibition at 5 µM [12]: 70%
